Experimental data from patent US20180016616A1, “METHODS AND COMPOSITIONS FOR THE DETECTION OF FUNCTIONAL CLOSTRIDIUM DIFFICILE TOXINS” (BOARD OF REGENTS OF THE UNIVERSITY OF TEXAS SYSTEM, priority 2011, published 2018).
Where two headings read alike, the source gives them in different places.

Columns and labels:
[1] = target: T1, C. difficile toxin A (Clostridioides difficile, UniProt P16154); settings: 0-300 mM
[2] = target: T2, C. difficile toxin B (Clostridioides difficile, UniProt P18177); settings: 0-300 mM
[3] = tested on: C. difficile spores; settings: 0.1% or approximately 1.9 mM
[4] = tested on: C. difficile toxins A and B; settings: 0.1% or approximately 1.9 mM
[5] = tested on: mammalian β-glucosidases; settings: cited from earlier work
[6] = target: T1, C. difficile toxin A; test: biochemical; settings: read-out: reduction of toxin A activity (percent inhibition)
[7] = target: T2, C. difficile toxin B; test: biochemical; settings: read-out: reduction of toxin B activity (percent inhibition)
[8] = tested on: C. difficile toxins A and B; test: Evaluation of chromogenic substrates for the Cdifftox Activity assay; format: biochemical, Clostridium difficile
Description: A Cdifftox Activity assay was used to identify fractions that contained PNPG cleavage activity. The assay consists of the Cdifftox substrate reagent composed of 10 mM PNPG, 50 mM Tris-HCl (pH 7.4), 50 mM NaCl, and 100 μM MnCl2. The assay was performed in Costar sterile polystyrene 96-well plates (Corning Inc., NY) by adding to each well 200 μl of sample or culture supernatant fluid containing the toxins and 100 μl of the reagent. The plate was incubated at 37° C. for 1-4 hrs and each reaction was stopped by the addition to the well of 40 μl of 3 M Na2CO3. Cleavage of the substrate was monitored by measuring the absorbance between 400-500 nm, with a SPECTRA max at 410 nm.
Plus 384 spectrophotometer (Molecular Devices, Sunnyvale, Calif.). To identify the best substrate for the assay, a number of substrates were evaluated including: p-nitrophenyl-α-D-glucopyranoside, 4-aminophenyl-α-D-glucopyranoside, 4-amino-phenyl-β-D-glucopyranoside, 5-benzyloxy-3-indoxyl-β-D-glucopyranoside, 5-bromo-6-chloro-3-indoxyl-β-D-glucopyranoside, 6-bromo-2-naphthyl-α-D-glucopyranoside, 6-chloro-3-indoxyl-α-D-glucopyranoside, 6-chloro-3-indoxyl-N-acetyl-beta-D-glucos-aminide, 5-bromo-3-indoxyl-β-D-galactopyranoside, and 5-bromo-4-chloro-3-indoxyl-β-D-galactopyranoside. […]

T1 sequence (P16154 whole entry, looked up): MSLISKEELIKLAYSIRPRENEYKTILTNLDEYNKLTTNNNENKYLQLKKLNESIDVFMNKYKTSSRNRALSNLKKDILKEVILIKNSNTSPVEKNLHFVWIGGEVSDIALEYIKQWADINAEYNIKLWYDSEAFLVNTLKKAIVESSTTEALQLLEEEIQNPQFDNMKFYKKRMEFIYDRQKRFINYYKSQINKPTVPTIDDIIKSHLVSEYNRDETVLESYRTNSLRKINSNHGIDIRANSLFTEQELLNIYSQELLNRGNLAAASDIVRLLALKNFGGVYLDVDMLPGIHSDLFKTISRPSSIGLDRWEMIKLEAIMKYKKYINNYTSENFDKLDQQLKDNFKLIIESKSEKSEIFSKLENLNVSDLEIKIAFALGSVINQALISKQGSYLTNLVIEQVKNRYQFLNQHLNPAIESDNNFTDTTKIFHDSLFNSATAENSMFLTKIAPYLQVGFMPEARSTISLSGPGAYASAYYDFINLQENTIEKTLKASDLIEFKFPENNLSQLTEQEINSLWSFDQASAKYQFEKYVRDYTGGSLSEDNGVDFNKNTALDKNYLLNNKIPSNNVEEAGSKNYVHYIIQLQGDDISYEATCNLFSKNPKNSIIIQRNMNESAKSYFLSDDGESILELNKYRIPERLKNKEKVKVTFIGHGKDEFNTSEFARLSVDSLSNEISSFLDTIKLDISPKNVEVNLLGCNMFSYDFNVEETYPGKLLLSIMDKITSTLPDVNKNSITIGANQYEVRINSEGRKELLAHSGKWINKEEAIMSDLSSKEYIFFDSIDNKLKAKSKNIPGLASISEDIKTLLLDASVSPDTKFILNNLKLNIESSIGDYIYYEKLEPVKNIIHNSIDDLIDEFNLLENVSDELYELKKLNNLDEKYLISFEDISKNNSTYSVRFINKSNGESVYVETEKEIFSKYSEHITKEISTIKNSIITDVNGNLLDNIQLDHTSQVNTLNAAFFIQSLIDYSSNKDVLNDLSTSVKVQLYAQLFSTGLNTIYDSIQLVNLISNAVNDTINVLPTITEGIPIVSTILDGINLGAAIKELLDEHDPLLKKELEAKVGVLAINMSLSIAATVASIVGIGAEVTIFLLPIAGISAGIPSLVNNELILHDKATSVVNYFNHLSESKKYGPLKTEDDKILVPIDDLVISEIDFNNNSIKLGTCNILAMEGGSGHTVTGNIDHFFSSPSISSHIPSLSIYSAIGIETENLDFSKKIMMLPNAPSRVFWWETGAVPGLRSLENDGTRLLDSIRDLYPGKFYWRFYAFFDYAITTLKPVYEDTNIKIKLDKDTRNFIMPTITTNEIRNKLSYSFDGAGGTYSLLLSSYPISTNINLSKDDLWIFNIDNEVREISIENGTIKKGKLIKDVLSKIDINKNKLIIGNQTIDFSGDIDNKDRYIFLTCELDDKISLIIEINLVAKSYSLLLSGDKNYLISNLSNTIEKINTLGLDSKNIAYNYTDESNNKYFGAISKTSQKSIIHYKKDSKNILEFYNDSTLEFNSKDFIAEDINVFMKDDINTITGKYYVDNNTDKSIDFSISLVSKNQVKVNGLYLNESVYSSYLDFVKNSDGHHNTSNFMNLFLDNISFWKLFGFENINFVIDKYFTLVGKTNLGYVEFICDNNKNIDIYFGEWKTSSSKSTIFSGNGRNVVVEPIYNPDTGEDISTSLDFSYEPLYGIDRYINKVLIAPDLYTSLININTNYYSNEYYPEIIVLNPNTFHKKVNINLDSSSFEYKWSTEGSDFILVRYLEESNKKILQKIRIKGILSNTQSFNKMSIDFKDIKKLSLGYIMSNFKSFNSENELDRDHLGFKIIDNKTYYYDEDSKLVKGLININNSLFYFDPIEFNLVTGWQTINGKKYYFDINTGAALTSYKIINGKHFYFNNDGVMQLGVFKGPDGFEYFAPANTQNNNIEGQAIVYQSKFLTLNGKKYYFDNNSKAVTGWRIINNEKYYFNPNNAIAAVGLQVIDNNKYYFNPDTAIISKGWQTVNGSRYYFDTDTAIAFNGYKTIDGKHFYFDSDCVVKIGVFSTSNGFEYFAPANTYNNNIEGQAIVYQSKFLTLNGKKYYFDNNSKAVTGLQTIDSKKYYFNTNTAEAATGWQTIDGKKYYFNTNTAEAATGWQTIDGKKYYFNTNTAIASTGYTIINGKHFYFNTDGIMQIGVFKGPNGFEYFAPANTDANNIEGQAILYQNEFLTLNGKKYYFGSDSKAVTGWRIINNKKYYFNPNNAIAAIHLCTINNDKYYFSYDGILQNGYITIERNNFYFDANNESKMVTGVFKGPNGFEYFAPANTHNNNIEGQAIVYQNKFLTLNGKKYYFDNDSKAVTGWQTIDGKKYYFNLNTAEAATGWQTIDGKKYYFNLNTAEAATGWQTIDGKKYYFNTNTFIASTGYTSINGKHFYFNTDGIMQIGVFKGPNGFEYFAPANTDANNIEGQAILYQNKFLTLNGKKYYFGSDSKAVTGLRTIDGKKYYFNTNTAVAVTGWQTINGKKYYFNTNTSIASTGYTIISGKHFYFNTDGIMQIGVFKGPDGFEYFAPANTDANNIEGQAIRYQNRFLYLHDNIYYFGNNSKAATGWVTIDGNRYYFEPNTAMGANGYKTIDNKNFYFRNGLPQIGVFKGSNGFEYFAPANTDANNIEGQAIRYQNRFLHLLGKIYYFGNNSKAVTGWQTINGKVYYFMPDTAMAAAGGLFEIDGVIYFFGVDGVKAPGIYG
T2 sequence (P18177 whole entry): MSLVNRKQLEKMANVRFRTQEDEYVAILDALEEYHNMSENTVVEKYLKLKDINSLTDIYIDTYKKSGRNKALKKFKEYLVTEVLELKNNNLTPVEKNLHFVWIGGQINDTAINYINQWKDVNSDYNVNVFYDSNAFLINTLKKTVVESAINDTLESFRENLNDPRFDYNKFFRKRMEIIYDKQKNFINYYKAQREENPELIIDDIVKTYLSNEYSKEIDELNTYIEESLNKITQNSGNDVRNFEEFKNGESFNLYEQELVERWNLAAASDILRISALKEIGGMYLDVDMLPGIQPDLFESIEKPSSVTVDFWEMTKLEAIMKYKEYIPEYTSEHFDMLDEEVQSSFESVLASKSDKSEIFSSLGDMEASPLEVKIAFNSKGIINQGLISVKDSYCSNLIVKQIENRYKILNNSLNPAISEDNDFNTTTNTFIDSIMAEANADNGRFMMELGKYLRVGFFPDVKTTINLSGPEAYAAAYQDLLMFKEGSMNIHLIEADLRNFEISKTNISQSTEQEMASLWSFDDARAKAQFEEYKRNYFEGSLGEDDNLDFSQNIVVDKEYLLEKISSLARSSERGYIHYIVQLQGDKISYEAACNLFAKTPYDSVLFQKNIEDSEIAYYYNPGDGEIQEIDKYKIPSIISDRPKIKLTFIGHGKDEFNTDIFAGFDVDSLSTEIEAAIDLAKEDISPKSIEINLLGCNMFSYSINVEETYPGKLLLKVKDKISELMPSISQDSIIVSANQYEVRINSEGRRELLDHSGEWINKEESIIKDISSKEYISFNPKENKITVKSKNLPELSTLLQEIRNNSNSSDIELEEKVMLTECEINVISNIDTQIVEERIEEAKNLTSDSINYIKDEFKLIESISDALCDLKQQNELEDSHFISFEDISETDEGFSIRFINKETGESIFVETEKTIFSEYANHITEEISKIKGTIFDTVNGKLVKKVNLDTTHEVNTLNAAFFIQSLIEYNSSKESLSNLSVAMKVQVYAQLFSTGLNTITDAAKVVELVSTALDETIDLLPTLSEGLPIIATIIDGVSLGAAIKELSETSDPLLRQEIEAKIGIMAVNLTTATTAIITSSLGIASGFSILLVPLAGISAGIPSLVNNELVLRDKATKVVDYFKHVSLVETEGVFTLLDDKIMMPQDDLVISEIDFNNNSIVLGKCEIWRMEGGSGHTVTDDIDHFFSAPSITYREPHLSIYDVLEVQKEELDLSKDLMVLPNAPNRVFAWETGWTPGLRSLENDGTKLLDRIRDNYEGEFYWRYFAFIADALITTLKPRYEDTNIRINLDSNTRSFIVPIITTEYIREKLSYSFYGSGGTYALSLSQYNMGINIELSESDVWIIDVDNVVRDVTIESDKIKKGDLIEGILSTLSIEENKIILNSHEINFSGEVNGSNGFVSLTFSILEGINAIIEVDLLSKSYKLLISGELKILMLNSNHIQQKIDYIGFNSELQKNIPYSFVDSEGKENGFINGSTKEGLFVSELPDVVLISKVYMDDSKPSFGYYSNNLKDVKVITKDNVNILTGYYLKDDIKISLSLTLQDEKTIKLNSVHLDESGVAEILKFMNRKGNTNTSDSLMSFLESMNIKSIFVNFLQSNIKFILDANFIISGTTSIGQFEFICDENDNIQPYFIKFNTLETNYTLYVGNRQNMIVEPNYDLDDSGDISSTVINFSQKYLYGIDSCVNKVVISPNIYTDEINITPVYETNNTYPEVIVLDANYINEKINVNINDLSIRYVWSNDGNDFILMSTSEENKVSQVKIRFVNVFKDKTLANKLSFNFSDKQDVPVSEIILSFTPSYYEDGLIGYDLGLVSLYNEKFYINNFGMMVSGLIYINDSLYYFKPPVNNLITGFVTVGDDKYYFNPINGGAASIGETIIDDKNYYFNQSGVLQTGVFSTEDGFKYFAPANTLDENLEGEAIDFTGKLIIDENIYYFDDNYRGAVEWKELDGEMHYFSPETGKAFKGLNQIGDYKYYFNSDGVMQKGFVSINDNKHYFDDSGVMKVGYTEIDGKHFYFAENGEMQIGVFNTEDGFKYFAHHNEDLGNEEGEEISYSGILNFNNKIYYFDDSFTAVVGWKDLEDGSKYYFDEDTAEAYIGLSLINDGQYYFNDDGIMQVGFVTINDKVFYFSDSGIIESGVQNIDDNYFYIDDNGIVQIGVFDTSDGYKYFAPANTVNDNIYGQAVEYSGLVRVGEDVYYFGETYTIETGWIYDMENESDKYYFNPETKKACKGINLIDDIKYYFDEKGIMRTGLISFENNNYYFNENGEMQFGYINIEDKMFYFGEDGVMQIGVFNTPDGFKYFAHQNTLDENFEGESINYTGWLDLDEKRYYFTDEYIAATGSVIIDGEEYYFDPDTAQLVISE

## C[C@H](CCC(=O)NCCS(=O)(=O)O)[C@H]1CC[C@H]2[C@@H]3[C@H](O)C[C@@H]4C[C@H](O)CC[C@]4(C)[C@H]3C[C@H](O)[C@]12C [sodium taurocholate]
[1]
  inhibition of toxin A PNPG cleavage activity, dose response: dose-dependent
[2]
  inhibition of toxin B PNPG cleavage activity, dose response: dose-dependent
[3]
  effect on C. difficile spores in plate assay medium: serves as a germinant
[4]
  inhibition of cleavage activity of the toxins at low concentration: does not inhibit
[5]; listed as Sodium taurocholate
  inhibition of β-glucosidases, mode: non-competitively inhibit
[5]; listed as taurocholate
  inhibition of β-glucosidases, mode: non-competitive
[6]
  inhibition at 300000 µM: 71%
[7]
  inhibition at 300000 µM: 86%

## O=[N+]([O-])c1ccc(O[C@@H]2O[C@H](CO)[C@@H](O)[C@H](O)[C@H]2O)cc1 [PNPG, p-nitrophenyl-β-D-glucopyranoside]
[8]
  cleavage by the toxins compared with other substrates evaluated: most efficient and sensitive, and had the lowest background

## phosphatidylserine
[5]
  inhibition of β-glucosidases, mode: non-competitive
